Results reported in US6448256B1, “Antibiotic prodrugs” (University of Massachusetts, priority 1999, dated 2002).
≈ marks a conversion by molar mass, not a printed value. Where two headings read alike, the source gives them in different places.

Experiments:
[1] = system: B. subtilis; experiment: Antibacterial activity of crude compounds made by small scale synthesis; assay type: cell-based; settings: crude reaction mixtures dissolved in DMSO, assayed directly
Procedure: 6-Anilinouracils were synthesized using small scale synthetic methods. One milligram quantities of 3-(3-methoxypropyl)-6-chlorouracil were heated with 42 substituted anilines in micro-test tubes at 130° C. for 20 minutes. The reaction mixtures were dissolved in DMSO and assayed directly for antibacterial activity.

[2] = target: B. subtilis DNA pol III (Bacillus subtilis, UniProt P13267); experiment: Inhibition of B. subtilis DNA pol III (Ki); assay type: biochemical
B. subtilis DNA pol III, sequence (P13267 whole entry): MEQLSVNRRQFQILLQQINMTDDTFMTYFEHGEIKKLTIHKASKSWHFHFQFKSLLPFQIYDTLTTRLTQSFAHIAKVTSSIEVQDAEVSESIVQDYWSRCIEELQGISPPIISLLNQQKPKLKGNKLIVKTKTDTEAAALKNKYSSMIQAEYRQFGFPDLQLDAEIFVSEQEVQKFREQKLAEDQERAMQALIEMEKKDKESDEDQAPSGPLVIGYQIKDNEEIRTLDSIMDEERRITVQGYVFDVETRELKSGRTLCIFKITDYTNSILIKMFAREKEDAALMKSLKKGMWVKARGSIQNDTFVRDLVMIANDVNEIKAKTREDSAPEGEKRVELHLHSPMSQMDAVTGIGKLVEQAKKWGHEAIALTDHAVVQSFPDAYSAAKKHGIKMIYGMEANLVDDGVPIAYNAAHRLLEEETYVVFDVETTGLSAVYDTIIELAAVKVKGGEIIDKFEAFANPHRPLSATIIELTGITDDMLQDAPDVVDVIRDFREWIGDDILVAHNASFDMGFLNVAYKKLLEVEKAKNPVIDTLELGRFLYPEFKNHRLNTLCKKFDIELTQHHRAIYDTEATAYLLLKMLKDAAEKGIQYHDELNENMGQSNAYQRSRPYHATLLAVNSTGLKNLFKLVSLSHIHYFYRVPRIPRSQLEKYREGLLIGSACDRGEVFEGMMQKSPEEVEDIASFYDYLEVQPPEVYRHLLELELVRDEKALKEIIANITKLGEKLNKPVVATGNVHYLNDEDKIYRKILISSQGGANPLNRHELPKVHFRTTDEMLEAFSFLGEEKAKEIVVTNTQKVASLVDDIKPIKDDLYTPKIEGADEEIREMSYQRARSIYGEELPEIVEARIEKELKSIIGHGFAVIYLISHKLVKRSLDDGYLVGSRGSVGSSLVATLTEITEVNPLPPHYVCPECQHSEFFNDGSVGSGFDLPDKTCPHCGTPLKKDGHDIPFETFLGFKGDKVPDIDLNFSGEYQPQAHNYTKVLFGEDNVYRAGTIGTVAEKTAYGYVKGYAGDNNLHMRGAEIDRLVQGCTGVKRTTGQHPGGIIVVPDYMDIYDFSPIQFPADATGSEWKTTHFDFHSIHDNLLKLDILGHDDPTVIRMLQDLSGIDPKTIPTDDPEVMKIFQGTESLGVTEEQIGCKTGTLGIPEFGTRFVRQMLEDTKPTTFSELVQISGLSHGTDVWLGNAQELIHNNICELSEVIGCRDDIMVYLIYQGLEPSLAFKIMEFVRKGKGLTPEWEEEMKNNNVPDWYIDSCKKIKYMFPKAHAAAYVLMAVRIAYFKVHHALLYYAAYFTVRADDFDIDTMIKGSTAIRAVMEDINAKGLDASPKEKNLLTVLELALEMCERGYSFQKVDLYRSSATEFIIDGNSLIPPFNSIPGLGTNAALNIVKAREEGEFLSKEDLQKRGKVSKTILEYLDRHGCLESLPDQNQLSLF
Procedure: (§1) To further investigate the antibacterial and/or DNA pol III inhibitory activity of various drug compounds, various ester-containing moieties N-linked to the EMAU core were produced as described in Example 1. These prodrugs were assayed for inhibition of B. subtilis DNA pol III and antibiotic activity against a number of bacteria.
The competitive inhibitor constants (Ki) of selected EMAU compounds were determined with three different pol Ills: the pol III enzyme from Bacillus subtilis (BS pol III), and the pol III enzymes of the clinically relevant pathogens, Enterococcus fecalis (EF pol III) and Staphylococcus aureus (SA pol 111).

[3] = system: B. subtilis; experiment: MIC against B. subtilis; assay type: cell-based; settings: for MIC B. subtilis: Table 2; for MIC: Bacillus subtilis, Table 6, read-out: MIC B. subtilis
Procedure: as §1
(§2) The minimal inhibitory concentrations (MICs) of the four N3-substituted agents and EMAU were determined for B. subtilis (BS), methicillin-sensitive and resistant S. aureus (SA & MRSA), vancomycin-sensitive and resistant E. fecalis (EF& VREF), vancomycin-resistant E. fecium (VREF*), and E. coli (EC) as a Gram-negative control.

[4] = system: S. aureus; experiment: MIC against S. aureus (methicillin-sensitive); assay type: cell-based; settings: for MIC S. aureus: Table 2; for MIC: Staphylococcus aureus, read-out: MIC S. aureas
Procedure: as §1, §2

[5] = system: MRSA; experiment: MIC against methicillin-resistant S. aureus strain MRSA / MRSA1; assay type: cell-based; settings: Table 2
Procedure: as §1, §2

[6] = system: MRSA2; experiment: MIC against methicillin-resistant S. aureus strain MRSA2; assay type: cell-based; settings: Table 2
Procedure: as §1, §2

[7] = system: E. fecalis; experiment: MIC against E. fecalis; assay type: cell-based; settings: for MIC E. fecalis: Table 2; for MIC: Table 6, read-out: MIC E. fecalis
Procedure: as §1, §2

[8] = system: E. fecium; experiment: MIC against E. fecium; assay type: cell-based; settings: Table 2
Procedure: as §1

[9] = system: vancomycin-resistant E. fecium; experiment: MIC against vancomycin-resistant E. fecium (VRE, VREF*); assay type: cell-based; settings: Table 2, vancomycin-resistant E. fecium
Procedure: as §1, §2

[10] = system: E. coli; experiment: MIC against E. coli (Gram-negative control); assay type: cell-based; settings: Table 2
Procedure: as §1, §2

[11] = Table 2, prodrugs having the EMAU core, read-out: Ki B. subtilis DNA Pol III
[12] = Table 6, read-out: Ki, inhibition constant vs. B. subtilis DNA pol III

## COCCCn1c(=O)cc(Nc2cc(F)c(F)c(F)c2)[nH]c1=O [3,4,5-triF]
[1]
  MIC B. subtilis: >100 µg/mL

## COCCCn1c(=O)cc(Nc2ccc(Br)c(Br)c2)[nH]c1=O [3,4-diBr]
[1]
  MIC B. subtilis: 3.13 µg/mL (≈ 7.23 µM)

## COCCCn1c(=O)cc(Nc2ccc(Cl)c(Cl)c2)[nH]c1=O [3,4-diCl]
[1]
  MIC B. subtilis: 6.25 µg/mL (≈ 18.2 µM)

## COCCCn1c(=O)cc(Nc2ccc(F)c(F)c2)[nH]c1=O [3,4-diF]
[1]
  MIC B. subtilis: >100 µg/mL

## COCCCn1c(=O)cc(Nc2ccc(C)c(C)c2)[nH]c1=O [3,4-diMe]
[1]
  MIC B. subtilis: 6.26 µg/mL (≈ 20.6 µM)

## COCCCn1c(=O)cc(Nc2ccc(OC)c(OC)c2)[nH]c1=O [3,4-diOMe]
[1]
  MIC B. subtilis: >100 µg/mL

## COCCCn1c(=O)cc(Nc2cc(Cl)cc(Cl)c2)[nH]c1=O [3,5-diCl]
[1]
  MIC B. subtilis: >100 µg/mL

## COCCCn1c(=O)cc(Nc2cc(C)cc(C)c2)[nH]c1=O [3,5-diMe]
[1]
  MIC B. subtilis: 50 µg/mL (≈ 165 µM)

## COCCCn1c(=O)cc(Nc2cc(OC(F)(F)F)cc(OC(F)(F)F)c2)[nH]c1=O [3,5-diOCF3]
[1]
  MIC B. subtilis: >100 µg/mL

## COCCCn1c(=O)cc(Nc2cccc(C(C)O)c2)[nH]c1=O (centres unmarked) [3-CH(OH)CH3]
[1]
  MIC B. subtilis: >100 µg/mL

## CCc1cc(Nc2cc(=O)n(CCCCOC(=O)C3CCCN3C(=O)OC(C)(C)C)c(=O)[nH]2)ccc1C (centres unmarked) [(CH2)4-OCOCH(CH2)3NH-Boc]
[2]; [11]
  Ki: 3200 nM
[3]
  MIC B. subtilis: <1.25 μ/ml
[4]
  MIC S. aureus: 10 μ/ml
[5]
  MIC MRSA: 20 μ/ml
[6]
  MIC MRSA2: 10 μ/ml
[7]
  MIC E. fecalis: 10 μ/ml
[8]
  MIC E. fecium: 10 μ/ml
[9]
  MIC VRE: 10 μ/ml
[10]
  MIC E. coli: >20 μ/ml

## CCc1cc(Nc2cc(=O)n(CCCCOC(=O)C(N)CO)c(=O)[nH]2)ccc1C.Cl (centres unmarked) [(CH2)4-OCOCH(CH2OH)NH3^+Cl^−]
[2]; [11]
  Ki: 10 nM
[3]
  MIC B. subtilis: 10 μ/ml
[4]
  MIC S. aureus: >20 μ/ml
[5]
  MIC MRSA: >20 μ/ml
[6]
  MIC MRSA2: >20 μ/ml
[7]
  MIC E. fecalis: 20 μ/ml
[8]
  MIC E. fecium: 20 μ/ml
[9]
  MIC VRE: 20 μ/ml
[10]
  MIC E. coli: >20 μ/ml

## CCc1cc(Nc2cc(=O)n(CCCCOC(=O)C(CO)NC(=O)OC(C)(C)C)c(=O)[nH]2)ccc1C (centres unmarked) [(CH2)4-OCOCH(CH2OH)NH-Boc]
[2]; [11]
  Ki: 1500 nM
[3]
  MIC B. subtilis: 5 μ/ml
[4]
  MIC S. aureus: 20 μ/ml
[5]
  MIC MRSA: 20 μ/ml
[6]
  MIC MRSA2: 20 μ/ml
[7]
  MIC E. fecalis: 5 μ/ml
[8]
  MIC E. fecium: 10 μ/ml
[9]
  MIC VRE: 5 μ/ml
[10]
  MIC E. coli: >20 μ/ml

## CCc1cc(Nc2cc(=O)n(CCCCOC(=O)C(N)Cc3ccccc3)c(=O)[nH]2)ccc1C (centres unmarked) [(CH2)4-OCOCH(CH2Ph)NH3^+Cl^−]
[2]; [11]
  Ki: 6200 nM
[3]
  MIC B. subtilis: >20 μ/ml
[4]
  MIC S. aureus: >20 μ/ml
[5]
  MIC MRSA: >20 μ/ml
[6]
  MIC MRSA2: >20 μ/ml
[7]
  MIC E. fecalis: >20 μ/ml
[8]
  MIC E. fecium: >20 μ/ml
[9]
  MIC VRE: >20 μ/ml
[10]
  MIC E. coli: >20 μ/ml

## CCc1cc(Nc2cc(=O)n(CCCCOC(=O)C(NC(=O)OC(C)(C)C)C(C)C)c(=O)[nH]2)ccc1C (centres unmarked) [(CH2)4-OCOCH(iPr)NH-Boc]
[2]; [11]
  Ki: 4900 nM
[3]
  MIC B. subtilis: 2.5 μ/ml
[4]
  MIC S. aureus: >20 μ/ml
[5]
  MIC MRSA: >20 μ/ml
[6]
  MIC MRSA2: >20 μ/ml
[7]
  MIC E. fecalis: >20 μ/ml
[8]
  MIC E. fecium: >20 μ/ml
[9]
  MIC VRE: >20 μ/ml
[10]
  MIC E. coli: >20 μ/ml

## COCCCn1c(=O)cc(Nc2ccc(C)c(I)c2)[nH]c1=O [Compound 3-1-4-Me]
[1]
  MIC B. subtilis: 1.57 µg/mL (≈ 3.78 µM)

## COCCCn1c(=O)cc(Nc2cccc(Br)c2)[nH]c1=O [Compound 3-Br]
[1]
  MIC B. subtilis: >100 µg/mL

## COCCCn1c(=O)cc(Nc2ccc(Br)c(C(F)(F)F)c2)[nH]c1=O [Compound 3-CF3-4-Br]
[1]
  MIC B. subtilis: >100 µg/mL

## COCCCn1c(=O)cc(Nc2ccc(Cl)c(C(F)(F)F)c2)[nH]c1=O [Compound 3-CF3-4-Cl]
[1]
  MIC B. subtilis: >100 µg/mL

## COCCCn1c(=O)cc(Nc2ccc(C)c(CO)c2)[nH]c1=O [Compound 3-CH2OH-4-Me]
[1]
  MIC B. subtilis: >100 µg/mL

## COCCCn1c(=O)cc(Nc2cccc(CO)c2)[nH]c1=O [Compound 3-CH2OH]
[1]
  MIC B. subtilis: >100 µg/mL

## COCCCn1c(=O)cc(Nc2cccc(C#N)c2)[nH]c1=O [Compound 3-CN]
[1]
  MIC B. subtilis: >100 µg/mL

## COCCCn1c(=O)cc(Nc2ccc(F)c(Cl)c2)[nH]c1=O [Compound 3-Cl-4-F]
[1]
  MIC B. subtilis: 50 µg/mL (≈ 153 µM)

## COCCCn1c(=O)cc(Nc2ccc(C)c(Cl)c2)[nH]c1=O [Compound 3-Cl-4-Me]
[1]
  MIC B. subtilis: 3.13 µg/mL (≈ 9.67 µM)

## COCCCn1c(=O)cc(Nc2ccc(OC)c(Cl)c2)[nH]c1=O [Compound 3-Cl-4-OMe]
[1]
  MIC B. subtilis: 50 µg/mL (≈ 147 µM)

## COCCCn1c(=O)cc(Nc2cccc(Cl)c2)[nH]c1=O [Compound 3-Cl]
[1]
  MIC B. subtilis: >100 µg/mL

## COCCCn1c(=O)cc(Nc2cccc(F)c2)[nH]c1=O [Compound 3-F]
[1]
  MIC B. subtilis: >100 µg/mL

## COCCCn1c(=O)cc(Nc2cccc(I)c2)[nH]c1=O [Compound 3-I]
[1]
  MIC B. subtilis: 25 µg/mL (≈ 62.3 µM)

## COCCCn1c(=O)cc(Nc2cccc(C)c2)[nH]c1=O [Compound 3-Me]
[1]
  MIC B. subtilis: 100 µg/mL (≈ 346 µM)

## COCCCn1c(=O)cc(Nc2cccc([N+](=O)[O-])c2)[nH]c1=O [Compound 3-NO2]
[1]
  MIC B. subtilis: >100 µg/mL

## COCCCn1c(=O)cc(Nc2cccc(OC)c2)[nH]c1=O [Compound 3-OMe]
[1]
  MIC B. subtilis: >100 µg/mL

## COCCCn1c(=O)cc(Nc2ccc(C#N)cc2)[nH]c1=O [Compound 4-CN]
[1]
  MIC B. subtilis: >100 µg/mL

## COCCCn1c(=O)cc(Nc2ccc(Cl)cc2)[nH]c1=O [Compound 4-Cl]
[1]
  MIC B. subtilis: 100 µg/mL (≈ 323 µM)

## CCc1ccc(Nc2cc(=O)n(CCCOC)c(=O)[nH]2)cc1 [Compound 4-Et]
[1]
  MIC B. subtilis: 50 µg/mL (≈ 165 µM)

## COCCCn1c(=O)cc(Nc2ccc(F)cc2)[nH]c1=O [Compound 4-F]
[1]
  MIC B. subtilis: >100 µg/mL

## COCCCn1c(=O)cc(Nc2ccc(I)cc2)[nH]c1=O [Compound 4-I]
[1]
  MIC B. subtilis: 100 µg/mL (≈ 249 µM)

## COCCCn1c(=O)cc(Nc2ccc(C)cc2)[nH]c1=O [Compound 4-Me]
[1]
  MIC B. subtilis: 50 µg/mL (≈ 173 µM)

## COCCCn1c(=O)cc(Nc2ccc(O)cc2)[nH]c1=O [Compound 4-OH]
[1]
  MIC B. subtilis: >100 µg/mL

## CCCc1ccc(Nc2cc(=O)n(CCCOC)c(=O)[nH]2)cc1 [Compound 4-Pr]
[1]
  MIC B. subtilis: >100 µg/mL

## COCCCn1c(=O)cc(Nc2ccc(CC(C)C)cc2)[nH]c1=O [Compound 4-iBU]
[1]
  MIC B. subtilis: >100 µg/mL

## COCCCn1c(=O)cc(Nc2ccc(C(C)C)cc2)[nH]c1=O [Compound 4-iPR]
[1]
  MIC B. subtilis: >100 µg/mL

## CCc1cc(Nc2cc(=O)n(CCCCI)c(=O)[nH]2)ccc1C [IB-EMAU, 3-(4-iodobutyl)-6-(3-ethyl-4-methylanilino)uracil]
[2]; [12]
  Ki: 360 nM
[3]
  MIC: < 3.1 µg/mL
[4]
  MIC: 12 µg/mL (≈ 28.1 µM)
[7]
  MIC: 6 µg/mL (≈ 14 µM)

## Cc1ccc(Nc2cc(=O)n(CCCCI)c(=O)[nH]2)cc1I [IB-IMAU]
[2]; [12]
  Ki: 660 nM
[3]
  MIC: < 3.1 µg/mL
[4]
  MIC: 6 µg/mL (≈ 11.4 µM)
[7]
  MIC: 6 µg/mL (≈ 11.4 µM)

## CCc1cc(Nc2cc(=O)n(CCCCOC)c(=O)[nH]2)ccc1C [MB-EMAU]
[2]; [12]
  Ki: 430 nM
[3]
  MIC: < 3.1 µg/mL
[4]
  MIC: 6 µg/mL (≈ 18.1 µM)
[7]
  MIC: 6 µg/mL (≈ 18.1 µM)

## COCCCCn1c(=O)cc(Nc2ccc(C)c(I)c2)[nH]c1=O [ME-IMAU]
[2]; [12]
  Ki: 540 nM
[3]
  MIC: < 3.1 µg/mL
[4]
  MIC: 6 µg/mL (≈ 14 µM)
[7]
  MIC: 3 µg/mL (≈ 6.99 µM)

## COCCCn1c(=O)cc(Nc2ccccc2)[nH]c1=O [—]
[1]
  MIC B. subtilis: >100 µg/mL
